Test results reported in patent US20250304567A1, “PYRROLIDIONE DERIVATIVES AS INHIBITORS OF NF KAPPA B INDUCING KINASE” (priority 2022, published 2025).
Read-outs that look alike come from different tables or passages of the source.

Tests used:
[1] = test system: p-IKKa levels in L363 (NIK translocated multiple myeloma) cells; assay: Effect of compounds on p-IKKa levels in L363 (NIK translocated multiple myeloma) cells (AlphaLISA SureFire Ultra p-IKKa Ser176/180); assay type: cell-based, human; conditions: average if tested more than once, read-out: Assay 2 IC50
Method in brief: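 Phospho-IKKa (Ser176/180) in lysates quantified by AlphaLISA after 6 h compound exposure, 11-point threefold dilutions, 0.3% DMSO. L363 cells were pre-stimulated overnight and assayed with 250 ng/ml BAFF and 10 μM MG132; % inhibition fitted sigmoidally for IC50, duplicate curves.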

[2] = target: Recombinant Human NF-kappaB-Inducing Kinase (NIK/MAP3K14) (Homo sapiens, UniProt Q99558); assay: Inhibition of auto-phosphorylation of recombinant human NIK/MAP3K14 activity (AlphaScreen); assay type: biochemical; conditions: 5 μM ATP, 1 nM NIK, average if tested more than once
Sequence of Recombinant Human NF-kappaB-Inducing Kinase (NIK/MAP3K14) (Q99558 whole entry): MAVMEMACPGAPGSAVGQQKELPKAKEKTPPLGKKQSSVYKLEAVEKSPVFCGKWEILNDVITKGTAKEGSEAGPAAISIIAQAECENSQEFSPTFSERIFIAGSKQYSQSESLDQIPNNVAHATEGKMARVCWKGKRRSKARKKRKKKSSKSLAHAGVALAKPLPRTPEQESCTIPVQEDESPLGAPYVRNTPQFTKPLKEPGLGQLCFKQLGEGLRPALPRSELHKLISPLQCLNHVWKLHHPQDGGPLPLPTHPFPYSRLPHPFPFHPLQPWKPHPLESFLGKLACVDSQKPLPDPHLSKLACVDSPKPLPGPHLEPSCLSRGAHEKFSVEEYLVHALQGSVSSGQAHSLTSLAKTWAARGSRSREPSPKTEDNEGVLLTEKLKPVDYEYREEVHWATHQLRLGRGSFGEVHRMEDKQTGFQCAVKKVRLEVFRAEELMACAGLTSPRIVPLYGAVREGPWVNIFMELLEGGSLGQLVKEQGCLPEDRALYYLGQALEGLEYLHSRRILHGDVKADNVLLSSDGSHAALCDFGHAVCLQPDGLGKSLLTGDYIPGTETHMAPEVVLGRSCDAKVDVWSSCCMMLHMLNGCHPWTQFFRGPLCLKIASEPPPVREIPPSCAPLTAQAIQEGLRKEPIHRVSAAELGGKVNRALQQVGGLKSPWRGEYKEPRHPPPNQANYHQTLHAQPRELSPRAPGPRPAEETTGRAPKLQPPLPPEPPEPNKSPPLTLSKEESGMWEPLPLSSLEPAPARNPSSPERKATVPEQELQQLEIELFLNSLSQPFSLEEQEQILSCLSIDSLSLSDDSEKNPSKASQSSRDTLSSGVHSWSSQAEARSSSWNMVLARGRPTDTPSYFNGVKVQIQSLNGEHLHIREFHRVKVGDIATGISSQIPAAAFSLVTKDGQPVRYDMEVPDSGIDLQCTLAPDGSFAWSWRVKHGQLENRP
Method in brief: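 AlphaScreen detection of phospho-Ser176/180 after 1 nM GST-NIK auto-phosphorylates for 2 h at 25 °C with 5 μM ATP (50 mM Tris pH 7.5, 0.7% DMSO). IC50s come from sigmoidal curves of % inhibition against log dose, using enzyme-free, ATP-free low controls and full-activity high controls.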

[3] = Homo sapiens, L-363, p-IKKa levels in L363 cells

Row | Compound | IC50 [1, 3] [nM] | IC50 [2] [nM] | IC50 ([1]; p-IKKa levels in L363 cells) [nM]
1 | COCCn1cc(Nc2nccc(-c3nc(-c4cccc([C@]5(O)CCN(C)C5=O)c4)cs3)n2)cn1 [Example 86, (R)-3-hydroxy-3-(3-(2-(2-((1-(2-methoxyethyl)-1H-pyrazol-4-yl)amino)pyrimidin-4-yl)thiazol-4-yl)phenyl)-1-methylpyrrolidin-2-one] | < 100 | < 100 | –
2 | CN1CCC(O)(c2cncc(-c3csc(-c4ccnc(Nc5ccnn5C)n4)n3)c2)C1=O (single isomer, unassigned) [Example 46, (R)-3-Hydroxy-1-methyl-3-(5-(2-(2-((1-methyl-1H-pyrazol-5-yl)amino)pyrimidin-4-yl)thiazol-4-yl)pyridin-3-yl)pyrrolidin-2-one or (S)-3-hydroxy-1-methyl-3-(5-(2-(2-((1-methyl-1H-pyrazol-5-yl)amino)pyrimidin-4-yl)thiazol-4-yl)pyridin-3-yl)pyrrolidin-2-one] | < 100 | < 100 | –
3 | CN1CC[C@@](O)(c2cccc(-c3csc(-c4ccnc(Nc5cnn6ccccc56)n4)n3)c2)C1=O [Example 82, (R)-3-hydroxy-1-methyl-3-(3-(2-(2-(pyrazolo[1,5-a]pyridin-3-ylamino)pyrimidin-4-yl)thiazol-4-yl)phenyl)pyrrolidin-2-one] | < 100 | < 100 | –
4 | CN1CC[C@@](O)(c2cncc(-c3ccn(-c4ccnc(Nc5cnn6ccccc56)n4)n3)c2)C1=O (single isomer, unassigned) [Example 146, (R)-3-hydroxy-1-methyl-3-(5-(1-(2-(pyrazolo[1,5-a]pyridin-3-ylamino)pyrimidin-4-yl)-1H-pyrazol-3-yl)pyridin-3-yl)pyrrolidin-2-one or (S)-3-hydroxy-1-methyl-3-(5-(1-(2-(pyrazolo[1,5-a]pyridin-3-ylamino)pyrimidin-4-yl)-1H-pyrazol-3-yl)pyridin-3-yl)pyrrolidin-2-one] | < 100 | < 100 | –
5 | Cc1cc(CNc2nccc(-c3csc(-c4cccc([C@]5(O)CCN(C)C5=O)c4)n3)n2)n[nH]1 [Example 113, (R)-3-hydroxy-1-methyl-3-(3-(4-(2-(((3-methyl-1H-pyrazol-5-yl)methyl)amino)pyrimidin-4-yl)thiazol-2-yl)phenyl)pyrrolidin-2-one] | > 501 | < 100 | –
6 | Cc1c(Nc2nccc(-c3csc(-c4cccc([C@]5(O)CCN(C)C5=O)c4)n3)n2)ncn1C [Example 178] | > 501 | > 501 | –
7 | C[C@H](Nc1nccc(-c2csc(-c3cccc([C@]4(O)CCN(C)C4=O)c3)n2)n1)c1cn[nH]c1 (single isomer, unassigned) [Example 138] | > 501 | < 100 | –
8 | CCn1cc(Nc2nccc(-c3csc(-c4cccc([C@]5(O)CCN(C)C5=O)c4)n3)n2)cn1 [Example 268, (R)-3-(3-(4-(2-((1-ethyl-1H-pyrazol-4-yl)amino)pyrimidin-4-yl)thiazol-2-yl)phenyl)-3-hydroxy-1-methylpyrrolidin-2-one] | 100 to 500 | < 100 | –
9 | CN1CCC(n2cc(Nc3nccc(-c4nc(-c5cccc([C@]6(O)CCN(C)C6=O)c5)cs4)n3)cn2)CC1 [Example 87, (R)-3-hydroxy-1-methyl-3-(3-(2-(2-((1-(1-methylpiperidin-4-yl)-1H-pyrazol-4-yl)amino)pyrimidin-4-yl)thiazol-4-yl)phenyl)pyrrolidin-2-one] | 100 to 500 | < 100 | –
10 | CC(Nc1nccc(-c2nc(-c3cccc(C4(O)CCN(C)C4=O)c3)cs2)n1)c1ccn(C)n1 (single isomer, unassigned) [Example 51] | – | < 100 | 100 to 500
11 | CC(Nc1nccc(-c2csc(-c3cccc([C@]4(O)CCN(C)C4=O)c3)n2)n1)c1ccnn1C (stereo partly drawn) [Example 119, (R)-3-hydroxy-1-methyl-3-(3-(4-(2-(((R,S)-1-(1-methyl-1H-pyrazol-5-yl)ethyl)amino)pyrimidin-4-yl)thiazol-2-yl)phenyl)pyrrolidin-2-one] | 100 to 500 | < 100 | –
12 | CN1CC[C@@](O)(c2cccc(-c3nc(-c4ccnc(Nc5cnn(CC6CCCO6)c5)n4)cs3)c2)C1=O (stereo partly drawn) [Example 72, (R)-3-hydroxy-1-methyl-3-(3-(4-(2-((1-(((R,S)-tetrahydrofuran-2-yl)methyl)-1H-pyrazol-4-yl)amino)pyrimidin-4-yl)thiazol-2-yl)phenyl)pyrrolidin-2-one] | 100 to 500 | < 100 | –
13 | CNC(=O)c1cc(Nc2nccc(-c3csc(-c4cccc([C@]5(O)CCN(C)C5=O)c4)n3)n2)n(C2CCCC2)n1 [Example 15, (R)-1-Cyclopentyl-5-((4-(2-(3-(3-hydroxy-1-methyl-2-oxopyrrolidin-3-yl)phenyl)thiazol-4-yl)pyrimidin-2-yl)amino)-N-methyl-1H-pyrazole-3-carboxamide] | 100 to 500 | < 100 | –
14 | (trans)-3-hydroxy-1-methyl-3-(3-(4-(2-((1-methyl-1H-pyrazol-3-yl)amino)pyrimidin-4-yl)thiazol-2-yl)phenyl)-5-(trifluoromethyl)pyrrolidin-2-one [Example 37] | – | > 501 | > 501
15 | CN1CC[C@@](O)(c2cccc(-c3cccc(-c4ccnc(NCCCO)n4)n3)c2)C1=O [Example 23, (R)-3-Hydroxy-3-(3-(6-(2-((3-hydroxypropyl)amino)pyrimidin-4-yl)pyridin-2-yl)phenyl)-1-methylpyrrolidin-2-one] | > 501 | > 501 | –
16 | CC(Nc1nccc(-c2nc(-c3cc([C@]4(O)CCN(C)C4=O)ccn3)cs2)n1)c1cnn(C)c1 (single isomer, unassigned) [Example 158, (R)-3-hydroxy-1-methyl-3-(2-(2-(2-(((R,S)-1-(1-methyl-1H-pyrazol-4-yl)ethyl)amino)pyrimidin-4-yl)thiazol-4-yl)pyrrolid-4-yl)pyrrolidine-2-one or (S)-3-hydroxy-1-methyl-3-(2-(2-(2-(((R,S)-1-(1-methyl-1H-pyrazol-4-yl)ethyl)amino)pyrimidin-4-yl)thiazol-4-yl)pyrrolid-4-yl)pyrrolidine-2-one] | 100 to 500 | < 100 | –
17 | CN1CC[C@@](O)(c2cncc(-c3ccn(-c4ccnc(Nc5ccn(C)n5)n4)n3)c2)C1=O (single isomer, unassigned) [Example 147, (R)-3-hydroxy-1-methyl-3-(5-(1-(2-((1-methyl-1H-pyrazol-3-yl)amino)pyrimidin-4-yl)-1H-pyrazol-3-yl)pyridin-3-yl)pyrrolidin-2-one or (S)-3-hydroxy-1-methyl-3-(5-(1-(2-((1-methyl-1H-pyrazol-3-yl)amino)pyrimidin-4-yl)-1H-pyrazol-3-yl)pyridin-3-yl)pyrrolidin-2-one] | 100 to 500 | < 100 | –
18 | CN1CC[C@@](O)(c2cccc(-c3nc(-c4ccnc(NCCC(C)(C)O)n4)cs3)c2)C1=O [Example 239] | > 501 | 100 to 500 | –
